Ends that are not written are not given here.
Legend:
[1] = target: T1, A2AR homodimer (A2A-cYFP / A2A-nYFP) in HEK-293T cells (Homo sapiens, UniProt P29274); test: Bimolecular fluorescence complementation (BiFC) assay of A2A receptor homodimer disruption; format: cell-based; details: 4 h incubation with peptide; for Effect on the control BiFC fluorescence (A2AR dimerization): HEK-293T cells, A2A-cYFP / A2A-nYFP, versus fluorescence of the dimer in the absence of peptides
T1 construct: expressed in transfected cells; host or cells: HEK-293T
T1 sequence (P29274 whole entry): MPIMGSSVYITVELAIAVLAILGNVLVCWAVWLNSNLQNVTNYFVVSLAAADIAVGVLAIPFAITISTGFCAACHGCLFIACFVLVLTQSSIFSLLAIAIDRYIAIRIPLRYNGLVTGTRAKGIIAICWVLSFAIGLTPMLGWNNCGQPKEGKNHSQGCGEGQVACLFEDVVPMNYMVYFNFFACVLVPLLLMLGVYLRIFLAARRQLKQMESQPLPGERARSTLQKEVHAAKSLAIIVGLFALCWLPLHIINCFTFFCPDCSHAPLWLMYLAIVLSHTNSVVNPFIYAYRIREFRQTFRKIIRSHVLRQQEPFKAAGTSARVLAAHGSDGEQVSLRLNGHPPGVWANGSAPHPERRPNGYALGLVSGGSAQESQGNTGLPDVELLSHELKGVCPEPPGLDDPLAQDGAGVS
Description: For bimolecular fluorescence complementation (BiFC) assays: cells were transfected using cDNAs coding for two versions of the receptor. As described elsewhere [18, 27], two cDNAs were prepared: each encoding the receptor fused to one of the two halves of the super yellow fluorescent protein (sYFP). […] Each half of the fluorescent protein is unable, by itself, to emit fluorescence, which is only feasible after complementation of the two halves of the sYFP.
To address homodimer disruption, bimolecular fluorescence complementation assays were performed using HEK-293T cells transfected with equal amounts of cDNAs (0.75 µg cDNA each) for A2A-cYFP and A2A-nYFP fusion proteins (intramural production, see [17, 18, 26, 28]). […] Fluorescence was recorded in a Fluostar Optima fluorimeter (BMG Labtechnologies, Offenburg, Germany). […] Values of fluorescence obtained in the absence or presence of peptides are given as mean ± standard error of the mean (SEM) of 16 independent experiments in duplicates.

[2] = tested on: trypsin; test: Trypsin digestion followed by HPLC; format: in vitro ADME; details: trypsin (isolated protease), after 30 min, peptide:trypsin 100:1, peptide 1 µg/µL, 50 mM ammonium bicarbonate buffer pH 8.2, 37 °C, reverse-phase HPLC-MS read-out, assays in duplicate, read-out: Decrease in the area of the starting HPLC peak on trypsin treatment
Description: It was of particular interest to ascertain how the internal cyclization and D-amino acid modifications influenced the lifespan of the partially cyclic structures. To this end, peptides 1 and 2, both with a TM5 disruptor sequence fused to a linear or a cyclic CPP motif, respectively, were inspected by high-performance liquid chromatography (HPLC) upon trypsin treatment. Analysis confirmed the vulnerability of fully linear 1 (Figure 3), with a 90% decrease in the area of the starting peak after only 30 min (Figure 4), and the appearance of new peaks identified by mass spectrometry (MS) (Table 2).
A 1000 µg/1000 µL trypsin solution (Thermo Fisher Scientific, Cornellà de Llobregat, Spain) […]) was prepared by suspending the lyophilized enzyme in 50 mM ammonium bicarbonate buffer, pH 8.2. Peptides dissolved in the same buffer (1 µg/µL) were incubated with trypsin (peptide:trypsin ratio = 100:1) for 24 h at 37 °C. Samples were collected at various time points and digestion was stopped by addition of 20% (v/v) of 0.5% formic acid in H2O. Samples were stored at −20 °C until analyzed by reverse-phase HPLC-MS.

[3] = target: T2, adenosine A2A receptor, fused to one half of super yellow fluorescent protein (A2A-cYFP or A2A-nYFP), BiFC … (UniProt P29274 1-412); test: split reporter (BiFC, NanoBiT); competition: HEK-293T cells expressing A2A-cYFP and A2A-nYFP treated with TM5 peptides 1 or 2 for 4 h before the complementation assay, in supplemented DMEM; dose-dependent loss of YFP fluorescence; details: one partner purified
T2 construct: source: HEK-293T, transfected, in living cells
T2 sequence (P29274 whole entry, the tested form may be a part): as the sequence (P29274 whole entry) above

Molecule: MNYMVYFNFFACVLVPLLLMLGVYL[KrRrGrKkRrE]-amide (sidechain bridge or staple) [Peptide 2, Cyclic Tat-like TM5: A2AR TM5 fused to cyclic KrRrGrKkRrE motif, N-terminus acetylated]
- IC50 ([1]; HEK-293T cells transfected with A2A-cYFP and A2A-nYFP, 48 h post-transfection, supplemented DMEM, Figure 2B, mean +/- SD, n = 12 in duplicates, read-out: IC50 for reduction of BiFC (sYFP complementation) fluorescence of the A2AR homodimer): 350 nM
- Effect on the control BiFC fluorescence (A2AR dimerization) [1]: affected the fluorescence of the control in a dose-dependent manner

Molecule: MNYMVYFNFFACVLVPLLLMLGVYLYGRKKRRQRRR-NH2 [Peptide 1]
- Effect on the control BiFC fluorescence (A2AR dimerization) [1]: affected the fluorescence of the control in a dose-dependent manner
- metabolised at 0.5 h, 1 µg/µL [2]: 90%

B1: Peptide 2, cyclic Tat-like TM5 (peptide)
peptide: MNYMVYFNFFACVLVPLLLMLGVYLKRRRGRKKRRE
modifications: also: cyclic (mode of cyclisation not given here)
notes: also called TM5-cyclic Tat-like; cyclic version 2; source: synthetic peptide (Fmoc solid-phase synthesis, on-resin cyclization, purified by preparative HPLC)
- IC50 [3]: 350 nM

B2: Peptide 1, linear Tat-based TM5 (peptide)
peptide: MNYMVYFNFFACVLVPLLLMLGVYLYGRKKRRQRRR-NH2
notes: TM5 helical domain of the adenosine A2A receptor (A2AR); also called linear TM5-Tat; linear peptide 1; source: synthetic peptide (Fmoc solid-phase synthesis, purified by preparative HPLC)
- IC50 [3]: 520 nM
